# In patent US20090018111A1, “Novel Antimicrobial Medicament” (priority 2004, published 2009):
# Like-named read-outs stand apart in the source and are kept apart here.
# Legend:
# Assay in all cases: Sensitivity test (agar dilution), clinical isolate
# Acinetobacter spp. 1195 = format: cell-based, Acinetobacter calcoaceticus and Acinetobacter lwoffi
# Experimental: (§1) In addition, the antibacterial activities were tested against strains which are comparatively less sensitive to β-lactam compounds, namely clinically isolated 13 strains of Acinetobacter calcoaceticus and Acinetobacter lwoffi, clinically isolated 11 strains of Serratia marcescens, clinically isolated 12 strains of Burkholderia cepacia, and clinically isolated 15 strains of Pseudomonas aeruginosa.
# (§2) According to the standard method of Japan Chemotherapeutic Society (Chemotherapy, vol. […], p 76-79 (1981)) the test was carried out using the agar dilution method. After dissolving test samples in distilled water, agar medium containing the test samples was prepared in such a manner that the final concentration became twice serial dilution by pouring serially diluted combination drug solution or a single drug solution into agar medium. As agar medium was used Mueller Hinton Agar medium (MHA). Then, each strain was cultivated over night at 37° C. in an incubator and suspended in buffered saline solution with gelatin (BSG) in the concentration of about 10^6 CFU/ml. The suspension (about 5 μl) containing test strains was inoculated to the medium containing the test samples by Micro Planter.
# (§3) Each drug was weighed, and dissolved in distilled water to give a test sample. When the drugs are used in combination, two kinds of solution containing each drug were mixed so as to be various ratio of concentration to give a mixed solution. When the sample is subjected to sensitivity test, this mixed solution was diluted by twice serial dilution method.
# (§4) Furthermore, when the drug is solely used, each test sample was used as it is, and diluted by twice serial dilution method from the maximum concentration to the minimum concentration.
# Acinetobacter spp. 1198 = format: cell-based, Acinetobacter calcoaceticus and Acinetobacter lwoffi
# Experimental: as §1, §2, §3, §4
# [1] = tested on: Acinetobacter spp. 1338-2; format: cell-based, Acinetobacter calcoaceticus and Acinetobacter lwoffi
# Experimental: as §1, §2, §3, §4
# [2] = tested on: Acinetobacter spp. 1398-2; format: cell-based, Acinetobacter calcoaceticus and Acinetobacter lwoffi
# Experimental: as §1, §2, §3, §4
# [3] = tested on: Acinetobacter spp. 1399-2; format: cell-based, Acinetobacter calcoaceticus and Acinetobacter lwoffi
# Experimental: as §1, §2, §3, §4
# Acinetobacter spp. 14712 = format: cell-based, Acinetobacter calcoaceticus and Acinetobacter lwoffi
# Experimental: as §1, §2, §3, §4
# Acinetobacter spp. 175 = format: cell-based, Acinetobacter calcoaceticus and Acinetobacter lwoffi
# Experimental: as §1, §2, §3, §4
# Acinetobacter spp. 227-1 = format: cell-based, Acinetobacter calcoaceticus and Acinetobacter lwoffi
# Experimental: as §1, §2, §3, §4
# Acinetobacter spp. 256 = format: cell-based, Acinetobacter calcoaceticus and Acinetobacter lwoffi
# Experimental: as §1, §2, §3, §4
# [4] = tested on: Acinetobacter spp. Jan-54; format: cell-based, Acinetobacter calcoaceticus and Acinetobacter lwoffi
# Experimental: as §1, §2, §3, §4
# [5] = tested on: Acinetobacter spp. Jan-81; format: cell-based, Acinetobacter calcoaceticus and Acinetobacter lwoffi
# Experimental: as §1, §2, §3, §4
# [6] = tested on: Acinetobacter spp. Jan-99 (second line, r15); format: cell-based, Acinetobacter calcoaceticus and Acinetobacter lwoffi
# Experimental: as §1, §2, §3, §4
# [7] = tested on: Acinetobacter spp. Jan-99; format: cell-based, Acinetobacter calcoaceticus and Acinetobacter lwoffi
# Experimental: as §1, §2, §3, §4
# B. cepacia 1892324 = format: cell-based, Burkholderia cepacia
# Experimental: as §1, §2, §3, §4
# P. aeruginosa 12790 = format: cell-based, Pseudomonas aeruginosa
# Experimental: as §1, §2, §3, §4
structure (smiles),measurement,setting,value
"C[C@@H](O)[C@H]1C(=O)N2C(C(=O)O)=C(S[C@@H]3CN[C@H](C(=O)N(C)C)C3)[C@H](C)[C@H]12 [MEPM, meropenem]",MIC,Acinetobacter spp. 1195; SPP.1195,0.125 mg/L
same,MIC,"Acinetobacter spp. 1195; SPP.1195, Concomitant (ME:SM = 1:1), read-out: MIC",0.25 mg/L
same,MIC,"Acinetobacter spp. 1195; SPP.1195, Concomitant (ME:SM = 1:4), read-out: MIC",0.063 mg/L
same,MIC,"Acinetobacter spp. 1195; SPP.1195, Concomitant (ME:SM = 2:1), read-out: MIC",0.25 mg/L
same,MIC,"Acinetobacter spp. 1195; SPP.1195, alone, read-out: MIC",0.25 mg/L
same,MIC,Acinetobacter spp. 1198; SPP.1198,0.125 mg/L
same,MIC,"Acinetobacter spp. 1198; SPP.1198, Concomitant (ME:SM = 1:1), read-out: MIC",0.25 mg/L
same,MIC,"Acinetobacter spp. 1198; SPP.1198, Concomitant (ME:SM = 1:4), read-out: MIC",0.063 mg/L
same,MIC,"Acinetobacter spp. 1198; SPP.1198, Concomitant (ME:SM = 2:1), read-out: MIC",0.25 mg/L
same,MIC,"Acinetobacter spp. 1198; SPP.1198, alone, read-out: MIC",0.5 mg/L
same,MIC,[1]; SPP.13382,0.125 mg/L
same,MIC,"[1]; SPP.13382, Concomitant (ME:SM = 1:1), read-out: MIC",0.5 mg/L
same,MIC,"[1]; SPP.13382, Concomitant (ME:SM = 1:2), read-out: MIC",0.5 mg/L
same,MIC,"[1]; SPP.13382, Concomitant (ME:SM = 2:1), read-out: MIC",0.5 mg/L
same,MIC,"[1]; SPP.13382, alone, read-out: MIC",1 mg/L
same,MIC,"[2]; SPP.13982, Concomitant (ME:SM = 1:1)",2 mg/L
same,MIC,"[2]; SPP.13982, Concomitant (ME:SM = 1:2)",2 mg/L
same,MIC,"[2]; SPP.13982, Concomitant (ME:SM = 1:4)",1 mg/L
same,MIC,"[2]; SPP.13982, Concomitant (ME:SM = 2:1)",4 mg/L
same,MIC,"[2]; SPP.13982, alone",32 mg/L
same,MIC,"[3]; SPP.13992, Concomitant (ME:SM = 1:1)",0.5 mg/L
same,MIC,"[3]; SPP.13992, Concomitant (ME:SM = 1:2)",0.5 mg/L
same,MIC,"[3]; SPP.13992, Concomitant (ME:SM = 1:4)",0.25 mg/L
same,MIC,"[3]; SPP.13992, Concomitant (ME:SM = 2:1)",0.5 mg/L
same,MIC,"[3]; SPP.13992, alone",0.5 mg/L
same,MIC,"Acinetobacter spp. 14712; SPP.14712, Concomitant (ME:SM = 1:1)",0.5 mg/L
same,MIC,"Acinetobacter spp. 14712; SPP.14712, Concomitant (ME:SM = 1:2)",0.5 mg/L
same,MIC,"Acinetobacter spp. 14712; SPP.14712, Concomitant (ME:SM = 1:4)",0.25 mg/L
same,MIC,"Acinetobacter spp. 14712; SPP.14712, Concomitant (ME:SM = 2:1)",0.5 mg/L
same,MIC,"Acinetobacter spp. 14712; SPP.14712, alone",1 mg/L
same,MIC,"Acinetobacter spp. 175; Acinetobacter, SPP.175",0.125 mg/L
same,MIC,"Acinetobacter spp. 175; Acinetobacter, SPP.175, Concomitant (ME:SM = 1:2), read-out: MIC",0.063 mg/L
same,MIC,"Acinetobacter spp. 175; Acinetobacter, SPP.175, Concomitant (ME:SM = 1:4), read-out: MIC",0.063 mg/L
same,MIC,Acinetobacter spp. 175; Concomitant (ME:SM = 1:1),0.125 mg/L
same,MIC,Acinetobacter spp. 175; Concomitant (ME:SM = 2:1),0.125 mg/L
same,MIC,"Acinetobacter spp. 227-1; SPP.2271, Concomitant (ME:SM = 1:1)",0.5 mg/L
same,MIC,"Acinetobacter spp. 227-1; SPP.2271, Concomitant (ME:SM = 1:2)",0.5 mg/L
same,MIC,"Acinetobacter spp. 227-1; SPP.2271, Concomitant (ME:SM = 1:4)",0.25 mg/L
same,MIC,"Acinetobacter spp. 227-1; SPP.2271, Concomitant (ME:SM = 2:1)",0.5 mg/L
same,MIC,"Acinetobacter spp. 227-1; SPP.2271, alone",1 mg/L
same,MIC,"Acinetobacter spp. 256; SPP.256, Concomitant (ME:SM = 1:1)",0.5 mg/L
same,MIC,"Acinetobacter spp. 256; SPP.256, Concomitant (ME:SM = 1:2)",0.5 mg/L
same,MIC,"Acinetobacter spp. 256; SPP.256, Concomitant (ME:SM = 1:4)",0.25 mg/L
same,MIC,"Acinetobacter spp. 256; SPP.256, Concomitant (ME:SM = 2:1)",0.5 mg/L
same,MIC,"Acinetobacter spp. 256; SPP.256, alone",1 mg/L
same,MIC,[4]; Concomitant (ME:SM = 1:1),0.5 mg/L
same,MIC,[4]; Concomitant (ME:SM = 1:2),0.5 mg/L
same,MIC,[4]; Concomitant (ME:SM = 1:4),0.25 mg/L
same,MIC,[4]; Concomitant (ME:SM = 2:1),0.5 mg/L
same,MIC,[4]; alone,1 mg/L
same,MIC,[5]; Concomitant (ME:SM = 1:1),8 mg/L
same,MIC,[5]; Concomitant (ME:SM = 1:2),2 mg/L
same,MIC,[5]; Concomitant (ME:SM = 1:4),2 mg/L
same,MIC,[5]; Concomitant (ME:SM = 2:1),4 mg/L
same,MIC,[5]; alone,4 mg/L
same,MIC,[6],0.125 mg/L
same,MIC,"[6]; Concomitant (ME:SM = 1:1), read-out: MIC",0.5 mg/L
same,MIC,"[6]; Concomitant (ME:SM = 1:2), read-out: MIC",0.25 mg/L
same,MIC,"[6]; Concomitant (ME:SM = 2:1), read-out: MIC",0.5 mg/L
same,MIC,"[6]; alone, read-out: MIC",0.5 mg/L
same,MIC,[7]; Acinetobacter,0.125 mg/L
same,MIC,"[7]; Acinetobacter, Concomitant (ME:SM = 1:1), read-out: MIC",0.25 mg/L
same,MIC,"[7]; Acinetobacter, Concomitant (ME:SM = 2:1), read-out: MIC",0.25 mg/L
same,MIC,"[7]; Acinetobacter, alone, read-out: MIC",0.25 mg/L
same,MIC,[7]; Concomitant (ME:SM = 1:2),0.125 mg/L
same,MIC,"B. cepacia 1892324; Burkholderia cepacia, 1892324, Concomitant (ME:SM = 1:1)",1 mg/L
same,MIC,"B. cepacia 1892324; Burkholderia cepacia, 1892324, Concomitant (ME:SM = 1:2)",1 mg/L
same,MIC,"B. cepacia 1892324; Burkholderia cepacia, 1892324, Concomitant (ME:SM = 1:4)",0.5 mg/L
same,MIC,"B. cepacia 1892324; Burkholderia cepacia, 1892324, Concomitant (ME:SM = 2:1)",2 mg/L
same,MIC,"B. cepacia 1892324; Burkholderia cepacia, 1892324, alone",2 mg/L
same,MIC,"P. aeruginosa 12790; Pseudomonas aeruginosa, 12790",0.125 mg/L
same,MIC,"P. aeruginosa 12790; Pseudomonas aeruginosa, 12790, Concomitant (ME:SM = 1:1), read-out: MIC",0.063 mg/L
same,MIC,"P. aeruginosa 12790; Pseudomonas aeruginosa, 12790, Concomitant (ME:SM = 1:4), read-out: MIC",0.063 mg/L
same,MIC,"P. aeruginosa 12790; Pseudomonas aeruginosa, 12790, Concomitant (ME:SM = 2:1), read-out: MIC",0.031 mg/L
same,MIC,"P. aeruginosa 12790; Pseudomonas aeruginosa, 12790, alone, read-out: MIC",0.063 mg/L
